Source: patent US8765949B2, “CCR2 receptor antagonists and uses thereof” (Boehringer Ingelheim International GmbH, priority 2009, dated 2014)
pKi: −log10 of the molar value.

molecular target: T1, CCR2 (Homo sapiens, UniProt P41597); experiment: CCR2 receptor membrane binding assay ([125I]MCP-1, THP-1 membranes, SPA beads); conditions: dissociation constant hKi; THP-1 cell membranes, [125I]MCP-1, bound radioactivity after 8 h
T1 construct: Membranes were prepared from THP-1 cells; endogenous in cells; host or cells: THP-1 (human acute monocytic leukaemia cells), membrane preparation
T1 sequence (P41597 1-360 isoform P41597-2): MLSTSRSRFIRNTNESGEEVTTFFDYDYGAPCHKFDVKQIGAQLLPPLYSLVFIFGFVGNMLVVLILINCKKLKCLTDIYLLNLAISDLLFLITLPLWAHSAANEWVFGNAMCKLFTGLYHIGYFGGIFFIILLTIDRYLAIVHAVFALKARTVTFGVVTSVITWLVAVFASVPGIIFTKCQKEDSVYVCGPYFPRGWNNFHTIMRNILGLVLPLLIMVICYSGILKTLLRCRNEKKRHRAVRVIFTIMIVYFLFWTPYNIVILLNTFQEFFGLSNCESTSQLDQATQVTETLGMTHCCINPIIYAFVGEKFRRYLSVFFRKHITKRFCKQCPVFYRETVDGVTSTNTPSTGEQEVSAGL
Procedure: The above exemplary substances have been tested for binding to CCR2 using a binding assay as outlined herein below:
THP-1 cells (human acute monocytic leukaemia cells) were cultured under standardized conditions at 37° C. and 5% CO2 in a humidified incubator. THP-1 cells were cultivated in RPMI 1640 medium (Gibco 21875) containing 1% MEM-NEAA (Gibso 11140) 2 mM L-glutamine, 1.5 g/L sodium bicarbonate, 4.5 g/L glucose, 10 mM HEPES and 1.0 mM sodium pyruvate, 90%; 10% fetal calf serum (FCS Gibco 10500-064).
Membranes were prepared from THP-1 cells. THP-1 cells were centrifuged at 300×g at 4° C. for 10 min. The cell pellet was resuspendet in Phosphate Buffer Saline (PBS, including 10 μM Pefabloc and a protease inhibitor mix ‘complete’, Boehringer Mannheim (1 tablet/50 ml)), to a concentration of […]. The membrane preparation was performed by disrupting the cells by nitrogen […] (at 50 bar, for 1 h) in a “Nitrogen Bombe” (Parr Instrument). Cell debris was removed by centrifugation (800×g at 4° C., 1 min). The supernatant was centrifuged at 80000×g, 4° C. for 30 min to sediment the cell membranes. Usually 50 mg of protein (Bradford assay) were yielded from 1×10E9 cells. The membranes were resuspendet in 25 mM HEPES, 25 mM MgCl2, 1 mM CaCl2, 10% Glycerine for storage in aliquots at −80° C. in 25 mM HEPES, 25 mM MgCl2, 1 mM CaCl2, 10% Glycerine and stored at −80° C.
Receptor Membrane Binding Assay:
Perkin Elmer NEX 332 Jod 125 MCP-1, Stock: 2200 Ci/mmol solved in 2000 μl assay buffer, stored at −20° C. THP-1 membrane were adjusted with 25 mM HEPES, pH 7.2; 5 mM MgCl2; 0.5 mM CaCl2; 0.2% BSA assay buffer to a concentration of 2.5 μg/15 μl. Amersham Biosciences PVT-WGA Beads (RPNQ0001) were adjusted with assay buffer to a concentration of 0.24 mg/30 μl. For preparation of the membrane-bead-suspension membranes and beads were incubated for 30 min at RT under rotation (60 rpm) with a ratio of 1:2. Test compounds dissolved in 100% DMSO to a concentration of 10 mM and are further diluted with 100% DMSO to 1 mM. All additional compound dilutions were obtained with assay buffer, final 1% DMSO. Compounds, membrane-bead-suspension and [125I]MCP-1 (ca. 25000 cpm/10 μl) were incubated. Bound radioactivity was determined by scintillation counter after 8 h. Determination of affinity of test compounds (dissociation constant hKi) is calculated by iterative fitting of experimental data using the “easy sys” program, which is based on law of mass action (Schittkowski K. (1994), Numerische Mathematik, Vol. 68, 129-142).

SMILES | pKi
CO[C@@H]1COCC[C@@H]1NC1CCN(C(=O)c2ncnc(NC[C@H]3CCC[C@@H](c4ccc(OC(F)(F)F)cc4)O3)c2C)CC1 [Example 53b] | 7.70
Cc1c(NC[C@H]2CCC[C@@H](c3ccc(C(F)(F)F)cc3)O2)ncnc1C(=O)N1CCC(NC2CCOCC2F)CC1 (stereo partly drawn) [Example 53u] | 8.52
Cc1c(NC[C@H]2CCC[C@@H](c3ccc(C(F)(F)F)nc3)O2)ncnc1C(=O)N1CCC(N2CCC(N(C)S(C)(=O)=O)CC2)CC1 [Example 25] | 6.38
Cc1c(NC[C@H]2CCC[C@@H](c3ccc(OC(F)(F)F)cc3)O2)ncnc1C(=O)N1CCC(NC2CCOCC2F)CC1 (stereo partly drawn) [Example 53w] | 9.22
CO[C@H]1COCC[C@H]1NC1CCN(C(=O)c2ncnc(NC[C@H]3CCC[C@@H](c4ccc(C)cc4)O3)c2C)CC1 [Example 30] | 8.30
CO[C@@H]1COCC[C@@H]1NC1CCN(C(=O)c2ncnc(NC[C@H]3CCC[C@@H](c4ccc(Cl)cc4)O3)c2C)CC1 [Example 41] | 8.52
Cc1ccc([C@@H]2CCC[C@H](CNc3nc(C)nc(C(=O)N4CCC(N5CCC(N(C)S(C)(=O)=O)CC5)CC4)c3C)O2)cc1 [Example 20] | 7.96
CO[C@H]1COCC[C@H]1NC1CCN(C(=O)c2ccnc(NC[C@H]3CCC[C@@H](c4ccc(C)cc4)O3)c2C)CC1 [Example 53e] | 7.80
Cc1c(NC[C@@H]2CCC[C@H](c3cccc(C(F)(F)F)c3)O2)ncnc1C(=O)N1CCC(N2CCC(N(C)S(C)(=O)=O)CC2)CC1 [Example 28a] | 7.35
Cc1ccc([C@H]2CCC[C@@H](CNc3ncnc(C(=O)N4CCC(N5CCC6(CC5)CC(C(=O)O)c5ccccc56)CC4)c3C)O2)cc1 (stereo partly drawn) [Example 60] | 6.13
CO[C@H]1COCC[C@H]1NC1CCN(C(=O)c2cc(NC[C@H]3CCC[C@@H](c4ccc(C(F)(F)F)cc4)O3)nc(C(F)(F)F)n2)CC1 [Example 53s] | 9.70
CO[C@@H]1COCC[C@@H]1NC1CCN(C(=O)c2cc(NC[C@H]3CCC[C@@H](c4ccc(C(F)(F)F)cc4)O3)ncn2)CC1 [Example 28j] | 9.00
Cc1c(NCC2CCCC(c3ccc(C(F)(F)F)o3)O2)ncnc1C(=O)N1CCC(N2CCC(N(C)S(C)(=O)=O)CC2)CC1 (stereo not drawn) [Example 28b] | 9.30
CO[C@@H]1COCC[C@@H]1NC1CCN(C(=O)c2ncnc(NC[C@@H]3CCC[C@H](c4ccccc4)O3)c2C)CC1 [Example 39] | 6.54
CO[C@H]1COCC[C@H]1NC1CCN(C(=O)c2ncnc(NC[C@H]3CCC[C@@H](c4ccccc4)O3)c2C)CC1 [Example 40] | 7.59
Cc1c(NC[C@H]2CCC[C@@H](c3ccccc3)O2)ncnc1C(=O)N1CCC(N2CCC(N(C)S(C)(=O)=O)CC2)CC1 [Example 11] | 7.28
CO[C@@H]1COCC[C@@H]1NC1CCN(C(=O)c2cc(NC[C@H]3CCC[C@@H](c4ccc(OC(F)(F)F)cc4)O3)ncn2)CC1 [Example 28m] | 9.00
CO[C@@H]1COCC[C@@H]1NC1CCN(C(=O)c2cc(NC[C@H]3CCC[C@@H](c4ccc(C)cc4)O3)ncn2)CC1 [Example 28i] | 6.66
COc1nc(NC[C@H]2CCC[C@@H](c3ccc(C(F)(F)F)cc3)O2)cc(C(=O)N2CCC(N[C@H]3CCOC[C@H]3OC)CC2)n1 [Example 53p] | 9.10
CO[C@H]1COCC[C@H]1N(C)C1CCN(C(=O)c2ncnc(NC[C@H]3CCC[C@@H](c4ccc(C)cc4)O3)c2C)CC1 [Example 54] | 7.55
COc1nc(NC[C@H]2CCC[C@@H](c3ccc(C)cc3)O2)c(C)c(C(=O)N2CCC(N[C@H]3CCOC[C@H]3OC)CC2)n1 [Example 53aa] | 8.70
Cc1c(NC[C@@H]2CCC[C@H](c3ccc(Cl)cc3)O2)ncnc1C(=O)N1CCC(N2CCC(N(C)S(C)(=O)=O)CC2)CC1 [Example 6] | 6.72
CO[C@@H]1COCC[C@@H]1NC1CCN(C(=O)c2ncnc(NC[C@@H]3CCC[C@H](c4ccc(OC(F)(F)F)cc4)O3)c2C)CC1 [Example 53d] | 7.72

SMILES | pKi
COc1nc(NC[C@H]2CCC[C@@H](c3ccccc3)O2)c(C)c(C(=O)N2CCC(N[C@@H]3CCOC[C@@H]3OC)CC2)n1 [Example 53af] | 8.10
COc1cc(NC[C@H]2CCC[C@@H](c3ccc(C)cc3)O2)cc(C(=O)N2CCC(N[C@H]3CCOC[C@H]3OC)CC2)n1 [Example 28n] | 7.42
CO[C@H]1COCC[C@H]1NC1CCN(C(=O)c2cc(NC[C@H]3CCC[C@@H](c4ccc(C(F)(F)F)cc4)O3)ncn2)CC1 [Example 28k] | 8.52
CO[C@H]1COCC[C@H]1NC1CCN(C(=O)c2cc(NC[C@H]3CCC[C@@H](c4ccc(OC(F)(F)F)cc4)O3)nc(C(F)(F)F)n2)CC1 [Example 53m] | 9.52
Cc1c(NC[C@@H]2CCC[C@H](c3ccc(C(F)(F)F)cc3)O2)ncnc1C(=O)N1CCC(N2CCC(N(C)S(C)(=O)=O)CC2)CC1 [Example 2] | 6.82
Cc1c(NC[C@H]2CCC[C@@H](c3ccc(OC(F)(F)F)cc3)O2)ncnc1C(=O)N1CCC(N2CCC(N(C)S(C)(=O)=O)CC2)CC1 [Example 26] | 8.22
Cc1cccc([C@@H]2CCC[C@H](CNc3ncnc(C(=O)N4CCC(N5CCC(N(C)S(C)(=O)=O)CC5)CC4)c3C)O2)c1 [Example 21] | 7.96
CO[C@@H]1COCC[C@@H]1NC1CCN(C(=O)c2ncnc(NC[C@H]3CCC[C@@H](c4ccccc4)O3)c2C)CC1 [Example 38] | 8.22
Cc1c(NCC2CCCC(c3ccc(F)cc3)O2)ncnc1C(=O)N1CCC(N2CCC(N(C)S(C)(=O)=O)CC2)CC1 (stereo not drawn) [Example 14] | 6.32
CO[C@@H]1COCC[C@@H]1NC1CCN(C(=O)c2ncnc(NC[C@@H]3CCC[C@H](c4ccc(C(F)(F)F)cc4)O3)c2C)CC1 [Example 37] | 7.60
CO[C@@H]1COCC[C@@H]1NC1CCN(C(=O)c2nc(C(F)(F)F)nc(NC[C@H]3CCC[C@@H](c4ccccc4)O3)c2C)CC1 [Example 53ai] | 8.96
CO[C@H]1COCC[C@H]1NC1CCN(C(=O)c2ncnc(NC[C@H]3CCC[C@@H](c4ccc(SC(F)(F)F)cc4)O3)c2C)CC1 [Example 53al] | 9.40
Cc1c(NC[C@H]2CCC[C@@H](c3ccc(OC(F)(F)F)cc3)O2)ncnc1C(=O)N1CCC(N[C@@H]2CCOC[C@@H]2F)CC1 [Example 53ak] | 9.10
Cc1c(NC[C@H]2CCC[C@@H](c3cccc(C(F)(F)F)c3)O2)ncnc1C(=O)N1CCC(N2CCC(N(C)S(C)(=O)=O)CC2)CC1 [Example 8] | 6.73
CO[C@H]1COCC[C@H]1NC1CCN(C(=O)c2ncnc(NC[C@@H]3CCC[C@H](c4ccc(OC(F)(F)F)cc4)O3)c2C)CC1 [Example 53c] | 7.01
Cc1ccc([C@@H]2CCC[C@H](CNc3ncnc(C(=O)N4CCC(N5CCC(NS(C)(=O)=O)CC5)CC4)c3C)O2)cc1 [Example 9] | 7.89
Cc1ccc(C2CCC[C@H](CNc3ncnc(C(=O)N4CCC(N5CCC(c6ccccc6C(=O)O)C5)CC4)c3C)O2)cc1 (stereo partly drawn) [Example 59] | 6.58
CO[C@@H]1COCC[C@@H]1NC1CCN(C(=O)c2cc(NC[C@H]3CCC[C@@H](c4ccc(OC(F)(F)F)cc4)O3)nc(C(F)(F)F)n2)CC1 [Example 53l] | 9.30
CO[C@@H]1COCC[C@@H]1NC1CCN(C(=O)c2ncnc(NC[C@H]3CCC[C@@H](c4ccc(C)cc4)O3)c2C)CC1 [Example 29] | 8.40
CO[C@H]1COCC[C@H]1NC1CCN(C(=O)c2ncnc(NC[C@@H]3CCC[C@H](c4cccc(C)c4)O3)c2C)CC1 [Example 32] | 6.48
Cc1c(NCC2CCCC(c3ccccc3)O2)ncnc1C(=O)N1CCC(N2CCC(N(C)S(C)(=O)=O)CC2)CC1 (stereo not drawn) [Example 10] | 6.85
Cc1ccc([C@@H]2CCC[C@H](CNc3ncnc(C(=O)N4CCC(N5CCC(c6cccc(C(=O)O)c6)C5)CC4)c3C)O2)cc1 (stereo partly drawn) [Example 55] | 6.51
